Where no end group is shown, it is not given here.

Assay [1] relates to CAC. Briefly: CAC mobilization assay in healthy subjects and diabetic patients. The assay is classed as in vivo, human. The settings on record: diabetic patients compared to normal subjects, 6 hours treatment; FIG. 3B. As for the experimental part:
(§1) All the subjects underwent the following testing session: • UAG (3.0 μg/kg/h iv. as infusion for 12 h from 0 to 12 hours); • isotonic saline (infusion from 0 to 12 hours).
(§2) All tests were performed starting at 08.30-09.00 a.m. after overnight fasting, 30 minutes after an indwelling catheter had been placed into a forearm vein by slow infusion of isotonic saline. Blood samples were taken at 0 h, 6 h and 12 h.
Mobilization assay—CAC recovered from healthy subjects and diabetic patients, treated with UAG or saline for 6 h and 12 h, were evaluated. Total number of MNC was counted by 3 independent investigators. The percentage of CAC was calculated by comparing CAC obtained from diabetic patients and healthy donors, treated for 6 h and 12 h with UAG, AG or saline, to CAC recovered at time 0.

For assay [2], the system named is CAC. Kind of assay: CAC cell-cycle progression (S phase, FACS). The assay is classed as cell-based, human. The conditions noted are these: cultured CAC, still evident after 7 days; FIG. 1A. As for the experimental part:
Peripheral-blood mononuclear cells (PB-MNC) isolated by Fycoll Histopaque 1077 (Sigma) were resuspended in 20% FBS 199 Medium and plated on fibronectin-coated dishes (Biocoat, Becton Dickinson Labware) as described by Hill et al. (Ref. 19). Human UAG studies were performed on CAC recovered from normal donors and diabetic patients. The purity of sorted cells was assessed by FACS analysis (Ref. 20). For experiments, the isolated CAC were cultured under 5% CO2 at 37° C. for 4 days on 20 μg/ml fibronectin-coated dishes in EGM-2 medium containing 10% FBS, hydrocortisone, human Fibroblast Growth Factor, Vascular Endothelial Growth Factor, Insulin Growth Factor 1, ascorbic acid, human Epidermal Growth Factor, gentamicin and amphotericin-B (Cambrex, Walkersville, Md., USA) alone or in combination with 1 μM UAG and 1.2 mg/ml AGE. In selected experiments, isolated CAC were cultured in EBM-2 medium (Cambrex, Walkersville, Md., USA) supplemented with 10 ng/ml of IL-3. […]
(§3) Flow Cytometry—To analyze CAC cell-cycle progression, cells recovered from diabetic, healthy subjects, NOD/SCID, ob/ob and wt mice, were cultured in EBM-2 supplemented with IL-3 (10 ng/ml), FACS analysis was performed as previously described (Ref. 20). Cell surface molecules were evaluated by flow cytometry as previously described (Ref. 24). Frequency of marker-positive cells is expressed as mean±standard deviation (SD).

For assay [3], the system named is CAC. Briefly: Arterial commitment of CAC recovered from treated mice (Q-RT-PCR). The assay is classed as in vivo. The settings on record: CAC from UAG-challenged mice cultured with IL-3; FIG. 4D. As for the experimental part: (§4) RNA isolation and quantitative real-time PCR—CAC from diabetic patients, healthy subjects and mice treated with UAG or saline were cultured in EGM-2 medium. Human arterial and venous cells were used as a positive controls. mRNA quantification was performed by Q-RT-PCR, as previously described (Ref. 24). The relative expression of Ephrin B2, Notch1, Notch4 and EphB4 were calculated by using comparative threshold cycle methods. The human and murine primer sequences used were described (Refs. 25, 26).
(§5) Isolation and Culture of CAC from C57BU6J, C57BL/6J ob/ob mice and NOD/SCID mice—6 weeks old C57BL/6J (wt) and ob/ob mice, 7 and 17 weeks old NOD/SCID mice were purchased from Charles River Lab (Lecco, Italy). Animals were anesthetized by intraperitoneal injection with Avertin (100 mg/50ml ip). Blood samples were drawn from left ventricular, as described by Hoff (Ref. 27). Peripheral blood MNC were isolated by Ficoll density-gradient centrifugation. Recovered cells were washed twice Isolated cells were resuspended and were cultured on 20 μg/ml fibronectin-coated dishes in EGM-2 BulletKit Medium. In selected experiments, the isolated CAC were cultured in EBM-2 medium supplemented with 10 ng/ml of IL-3.

The subject of the next assay is HIT-T15 β-cells. Briefly: Survival of cytokine-treated HIT-T15 β-cells (MTT). The assay is classed as cell-based. The conditions noted are these: cytokines (IFN-γ/TNF-α/IL-1β), peptides 1 nM to 100 nM. As for the experimental part: The survival effect of UAG (6-13) (SEQ ID NO: 6), UAG (8-13) (SEQ ID NO: 7), UAG (8-12) (SEQ ID NO: 8), UAG (8-11) (SEQ ID NO: 12), UAG (9-12) (SEQ ID NO: 9) and UAG (9-11) (SEQ ID NO: 10) was assessed in cytokine-treated HIT-T15 β-cells. […] The protective effects of peptides UAG (8-13) (SEQ ID NO: 7) and UAG (8-12) (SEQ ID NO: 8) were found similar to those of UAG (1-14) (SEQ ID NO: 2) and UAG (1-18) (SEQ ID NO: 3). A peptide made of the inverse sequence of UAG (1-14) (SEQ ID NO: 2) and named UAG (14-1) (SEQ ID NO: 11), was used as negative control for these experiments. […] These effects were however lower than those of UAG (6-13) (SEQ ID NO: 6).

Assay [4] has as its system CAC. Briefly: Expansion (S phase) of CAC recovered from treated mice. The settings on record: CAC from UAG-challenged mice, IL-3; FIG. 4C. The assay is classed as in vivo. The method, then:
as §3, §5

The test system of a further assay is human arteries. The conditions noted are these: Ref. 35; cited from earlier work.
For assay [5], the system named is CAC. Briefly: Detection of ROS in CAC (DCF-DA assay, FACS). The assay is classed as cell-based, human. The method, then:
Peripheral-blood mononuclear cells (PB-MNC) isolated by Fycoll Histopaque 1077 (Sigma) were resuspended in 20% FBS 199 Medium and plated on fibronectin-coated dishes (Biocoat, Becton Dickinson Labware) as described by Hill et al. (Ref. 19). Human UAG studies were performed on CAC recovered from normal donors and diabetic patients. The purity of sorted cells was assessed by FACS analysis (Ref. 20). For experiments, the isolated CAC were cultured under 5% CO2 at 37° C. for 4 days on 20 μg/ml fibronectin-coated dishes in EGM-2 medium containing 10% FBS, hydrocortisone, human Fibroblast Growth Factor, Vascular Endothelial Growth Factor, Insulin Growth Factor 1, ascorbic acid, human Epidermal Growth Factor, gentamicin and amphotericin-B (Cambrex, Walkersville, Md., USA) alone or in combination with 1 μM UAG and 1.2 mg/ml AGE. In selected experiments, isolated CAC were cultured in EBM-2 medium (Cambrex, Walkersville, Md., USA) supplemented with 10 ng/ml of IL-3. FACS was used to analyze their phenotype (anti-CD45, anti-CD31, anti-CD105, anti-CD14 antibodies were used) (Ref. 22).
Detection of ROS—DCF-DA (0.5 μM final concentration) was added to CAC in the indicated culture conditions. At the indicated times, the cells were subjected to FACS analysis and processed as previously described (Ret. 22). H2O2 was used as positive control.

The subject of assay [6] is CAC. Briefly: Arterial specification of recovered human CAC (Q-RT-PCR of Ephrin B2, Notch1, Notch4, EphB4). The assay is classed as in vivo. The settings on record: cells from treated patients cultured with IL-3; FIG. 3D. The method, then: as §4
Assay [7] relates to CAC. Kind of assay: Senescence of CAC recovered from type 2 diabetic patients treated with UAG. The arrangement: species or system human. The conditions noted are these: 12 hours of treatment in vivo, FIG. 2D. As for the experimental part:
as §1, §2
CAC Senescence—Senescence was evaluated by acidic β-gal activity on CAC recovered from normal subjects cultured in EGM2 medium for 4 days with UAG or AGE+UAG and saline- or UAG-treated diabetic patients (Ref. 22). Briefly, CAC were washed in phosphate-buffered saline, fixed for 3 min at room temperature in 2% paraformaldehyde, washed, and incubated for24 h at 37° C. with fresh SA-β-gal stain solution: 1 mg/ml 5-bromo-4-chloro-3-indolyl β-D-galactopyranoside (X-gal), 5 mM/liter potassium ferrocyanide, 5 mM/liter ferricyanide, 150 mM/liter NaCl, 2 mM/liter MgCl2, 0.01% sodium deoxycholate, and 0.02% Nonidet P-40. SA-β-gal-positive cells were counted manually by 3 independent investigators.

As to “1-NH2Gly-Ser-Ser-Phe-Leu-Ser-Pro-Glu-His-Gln-Arg-Val-Gln-Gln-Arg-Lys-Glu-Ser-Lys-Lys-Pro-Pro-Ala-Lys-Leu-Gln-Pro-Arg-28 (GSSFLSPEHQRVQQRKESKKPPAKLQPR; ends and bridges not checked; listed as Homo sapiens) [UAG]”, the “number of recovered CAC” value in the assay with CAC [1] is on record as “strong increase in the number of recovered cells”. For the same substance, the “percentage of cells in S phase” value in the assay with CAC [2] is on record as “significant increase in the percentage of cells in S phase”. In the assay on CAC [3], the “arterial commitment of recovered CAC” value is on record as “acquire arterial commitment”. Also, the “survival effect on cytokine-induced cell death” value in the assay with HIT-T15 β-cells is on record as “comparable”. Also, the “expansion of recovered CAC” value in the assay on CAC [4] is on record as “could be expanded”. Also, in the assay with human arteries, the vasodilator action result is on record as “vasodilator actions”. The “level of ROS production in AGE-cultured cells” value with CAC [5] (AGE-cultured CAC, FIG. 1C, 1F) is recorded as “reduced”. Also, the “intracellular ROS production in diabetic-recovered cells” value in the assay with CAC [5] (CAC isolated from type 2 diabetic patients, FIG. 1D) is on record as “reduced intracellular ROS production”. In addition, the “baseline level of ROS production” value in the assay with CAC [5] (compared to untreated cells, FIG. 1B, 1E) is recorded as “drastically reduces the baseline level of ROS production”. Moreover, the “arterial specification (Ephrin B2, Notch1, Notch4 vs EphB4)” value in the assay on CAC [6] is “able to undergo arterial specification”. In addition, in the assay with CAC [7], the “number of senescent cells” value is “reduced the number of senescent cells”.
